# From patent US6083496A, “Polyamine transport inhibitors” (priority 1996, dated 2000)
# Experiments:
# ZR-75-1 cells = test: Effect of inhibitors on cell proliferation (11 days, DNA content); format: cell-based, human; details: 11 days
# Experimental: Effect of Inhibitors on Cell Proliferation--For growth studies, ZR-75-1 cells were cultured in MEZR medium or in phenol red-free RPMI 1640 supplemented with 2 mM L-glutamine, 1 mM sodium pyruvate, 15 mM Hepes, antibiotics, 1 nM 17β-estradiol, 0.5 μg of bovine insulin per ml and 5% (v/v) charcoal-treated fetal bovine serum (SD medium), as indicated in the text. […] M. L. 1989. in The Physiology of Polyamines (Bachrach, U., and Helmer, Y. M. eds) Vol. I, pp. 203-229, CRC Press, Boca Raton). […] Endocrinology 126: 3223-3231). Medium was changed every other day in these experiments because of the slow reaction of the compound with an unknown component present in the IMEM and RPMI 1640 medium formulation.
# polyamine transporter [1] = test: Spermidine uptake ([3H]spermidine) in ZR-75-1 cells; format: cell-based, human; details: FIG. 3
# Experimental: (§1) J. Biol. […] Endocrinology 126: 3223-3231). […] Cell cultures were then washed twice with 1 ml PBS containing 5.7 mM sym-norspermidine. Cells were then lysed with 200-μl aliquot of 1 N NaOH and incubated for 30 minutes at 60° C. After neutralization with 200 μl of 1 N HCl, radioactivity was determined from a 250-μl of the cell lysate by scintillation counting. Uptake activity was expressed per amount of total cellular protein as determined by the method of Bradford (Bradford, M. M. 1976. Anal. Biochem. 72: 248-254). Non-specific binding of radioactive substrate was similarly determined in parallel for both cell lines after a 15 second-incubation with 400 μl of ice-cold uptake solution. […] Km, Ki and Vmax values were then estimated by Line-weaver-Burke analysis. For competitive inhibitors, Ki values were also estimated by measuring uptake activity in the presence of logarithmically increasing concentrations of antagonist, and using the Cheng-Prusoff equation (Cheng. Y. -C. and Prusoff, W. H. 1973. Biochem. Pharmacol. 22: 3099-3108) by iterative curve fitting for a sigmoidal curve. For mixed competitive/noncompetitive inhibition, two methods were used to calculate kinetic constants. […] C. 1976. Enzymes, 3rd Ed., Academic Press, San Diego, Calif.). […] C. 1976. Enzymes, 3rd Ed., Academic Press, San Diego, Calif.).
# polyamine transporter [2] = test: Putrescine uptake ([3H]putrescine) in ZR-75-1 cells; format: cell-based, human; details: FIG. 3
# Experimental: as §1
# polyamine transporter [3] = details: ZR-75-1 cells; compound as its own substrate; read-out: Km, spermine transport; cited from earlier work
# [4] = secondary amino group of the spermine head; cited from earlier work
smiles,measurement,setting,value
"NCCCNCCCCNCCCN [Spermine, N,N'-bis-[3-aminopropyl]-1,4-butane-diamine, reference compound]",Effect on cell growth,ZR-75-1 cells; 50 μM,acutely cytotoxic
same,Influence of 1 mM aminoguanidine on the growth effect of the compound,"ZR-75-1 cells; spermine 50 μM, MESC 200 μM, DEASC 50 μM",only partly prevented by aminoguanidine
same,"Ability to compete against [3H]spermidine uptake, fold higher than that of DESC",polyamine transporter [1],about 7 fold
same,"Ability to compete against [3H]putrescine uptake, fold higher than that of DESC",polyamine transporter [2],about 7 fold
same,Km,polyamine transporter [3],0.2 ± 0.06 µM
same,pKa,[4],8.9-9.8
